# Reference: PMC7408072 (Pharmaceutics, 2020)
# Peptide text beside a SMILES is read from it. * marks the point of attachment. 5TAMRA = CN(C)c1ccc2c(c1)Oc1cc(N(C)C)ccc1C21OC(=O)c2cc(C(=O)*)ccc21
# Columns and labels:
# [1] = system: bovine BCEC monolayers co-cultured with rat astrocytes; assay: Barrier integrity by transendothelial electrical resistance (TEER); assay type: cell-based; settings: 3 h, bovine BBB model; for barrier integrity (TEER before and after peptide application): 100 µM peptide, 37 °C, N = 3, n = 3
# Experimental: (§1) Transport across bovine or mouse BCEC monolayers co-cultured with rat astrocytes was carried out over 3 h at 37 °C with horizontal shaking (90 rpm). TEER was measured at room temperature using an Endohm 12 cup (World Precision Instruments, Sarasota, FL, USA) connected to a Millicell-ERS device (Millipore, Bedford, MA, USA). TEER was measured before application of the peptides and after each experiment. The bovine model had initial TEER values ranging from 771 to 1332 Ω·cm^2, whereas the mouse model had initial TEER values ranging from 136 to 217 Ω·cm^2.
# [2] = system: primary bovine brain capillary endothelial cells co-cultured with primary rat astrocytes; assay: Peptide stability on the in vitro bovine BBB model; assay type: in vitro ADME; settings: FBS-free differentiation medium, 50 µM peptide, bovine BCEC/rat astrocyte co-culture, 37 °C, 90 rpm, HPLC C18, 220 and 543 nm, mean ± SD, N = 3
# Experimental: BCECs co-cultured with rat astrocytes: a batch of capillary suspension was thawed and the DMSO removed by centrifugation in DMEM complete at 500× g for 5 min at room temperature. The pellet was re-suspended in DMEM complete and transferred to a culture flask (T75) coated with collagen and fibronectin (both 0.01 mg/mL in PBS). The capillary fragments were allowed to settle for 4–6 h in a humidified incubator (37 °C, 10% CO2) before changing the media to growth medium(+) (DMEM complete/ACM (1:1) with 125 µg/mL heparin) supplemented with 4 µg/mL pyromycin. On day 3, the BCECs received fresh growth medium(+) and rat astrocytes were seeded on the bottom of collagen and fibronectin coated (both 0.1 mg/mL in PBS) Transwell® plate permeable supports (Corning, Corning, NY, USA; 120,000 cells/1.12 cm^2 support with 0.4 µm pore size) in DMEM complete (37 °C, 10% CO2). On day 5, the media in the Transwell® plate was replaced by growth medium(-) (DMEM complete with 125 µg/mL heparin) and the endothelial cells detached from the flask using trypsin-EDTA (Thermo Fischer Scientific, Bedford, MA, USA). The remaining trypsin-EDTA was removed by centrifugation in DMEM complete at 1070× g for 5 min at room temperature. The endothelial cells were re-suspended in growth medium(-) and seeded on the apical side of the Transwell® plate permeable supports (100,000 cells/support). On day 8, the medium was changed to differentiation medium (DMEM containing 50 mM N-Tris-(hydroxymethyl)methyl-2-aminoethanesulfonic acid (TES), 10% FBS, 1% non-essential amino acids, 100 µg/mL penicillin/streptomycin (100 U/mL), 2 mM L-glutamine, 312.5 µM 8-(4-CPT)cyclic adenosine monophosphate, 0.5 µM dexamethasone, and 17.5 µM RO-20-1724). On day 11, the bovine BBB model was ready for use as evident by the measured transendothelial electrical resistance (TEER) values for each filter prior to experimental start.
# Stability on the in vitro bovine BBB model: the differentiation medium was gently aspirated from the BCEC monolayers and replaced with 300 and 600 µL of 37 °C FBS-free differentiation medium containing 50 µM peptide on the luminal and abluminal side, respectively. The cells were incubated at 37 °C with horizontal shaking (90 rpm) for 4 h. Samples (10 µL) were withdrawn at 0, 10, 20, 30, 45, 60, 120, 180, and 240 min and two volumes of ice-cold ACN were immediately added prior to analysis by HPLC using an AdvanceBio Peptide Map column (C18, 4.6 × 150 mm, 2.7 µm particle size; Agilent, Glostrup, Denmark) connected to a Prominence system (LC-20 AD, SIL20 AC, SPD-M20A PDA, and CTO-20A modules; Shimadzu, Kyoto, Japan). Mobile phase A consisted of 95% ultrapure water and 5% ACN with 0.1% TFA and mobile phase B of 95% ACN and 5% ultrapure water with 0.1% TFA. […]
# [3] = system: bovine BCEC monolayers co-cultured with rat astrocytes; assay: Transport, membrane adherence and cell uptake quantified by TAMRA fluorescence (bovine model); assay type: in vitro ADME; settings: 3 h, 37 °C, N = 2-3, n = 3; for peptide adhering to the cell surface / peptide taken up by the cells (endothelial cells and astrocytes): 100 µM peptide, TAMRA fluorescence 542/568 nm, mean ± SEM; for peptide adhering to the cell surface: acetic acid buffer pH 3 wash fraction; for peptide taken up by the cells (endothelial cells and astrocytes): lysate fraction; for peptide transported across the barrier (abluminal content): 100 µM peptide luminal, 90 rpm, medium with 10% FBS, abluminal TAMRA fluorescence, compared to TAMRA-NR2B9c
# Experimental: as §1
# TAMRA fluorescence was measured using a NovoStar fluorescence plate reader (BMG Labtech, Offenburg, Germany) with excitation/emission set to 542/568 nm. The transported peptide was calculated using standard curves ranging from 31 nM to 2 µM. All peptide standard curves were subjected to 3 h of incubation at 37 °C with horizontal shaking (90 rpm) in differentiation media withdrawn from BCECs co-cultured with rat astrocytes.
# Two filters from each BCEC batch were subjected to quantification of the TAMRA-peptide adhering to the BCEC plasma membrane and peptide taken up by the BCECs and astrocytes. […] The peptide solutions were removed from the cells and the filters washed thrice with 37 °C hHBSS. To isolate the peptide fraction adhering to the plasma membrane, the BCECs were placed on ice and incubated with 300 µL ice-cold acetic acid buffer ([…], 1% BSA, pH 3) for 5 min. The acetic acid buffer solution was gently pipetted up and down twice prior to collection of 100 µL samples into a black clear-bottom 96-well plate for analysis. The remaining acetic acid buffer solution was removed from the luminal chamber and the cells washed thrice with ice-cold hHBSS. To isolate the peptide fraction being taken up by the BCECs and astrocytes, the filter inserts were cut out and 150 µL of ice-cold lysis buffer (10 mM Tris-HCl, 0.25 M sucrose, 1 mM EDTA, 1 mM ethylene-bis(oxyethylenenitrilo)tetraacetic acid tetrasodium (EGTA), 2% Tergitol™, Complete® inhibitor tablet) added prior to incubation for 10 min on ice. The cells were homogenized using a pellet pestle (Merck, St. Louis) and subjected to centrifugation at 10,000× g at 4 °C for 10 min. The 100 µL supernatant was transferred into a black clear-bottom 96-well plate. TAMRA fluorescence was measured using a NovoStar fluorescence plate reader (BMG Labtech, Offenburg, Germany) with excitation/emission set to 542/568 nm. The molar amount of membrane-adhered peptide and peptide taken up by the cells was calculated using standard curves freshly prepared in acetic acid buffer and lysis buffer, respectively, in concentrations ranging from 40 nM to 2.5 µM.
SMILES,barrier integrity (TEER before and after peptide application) [1],% remaining after 4 h of luminal incubation on the BCECs [2],peptide adhering to the cell surface [3],peptide taken up by the cells (endothelial cells and astrocytes) [3],barrier integrity (TEER) upon co-application of FITC-dextran with peptide ([1]; 1 mg/mL FITC-dextran with 100 µM peptide),peptide transported across the barrier (abluminal content) [3]
CC[C@H](C)[C@H](NC(=O)[C@H](CO)NC(=O)[C@H](CO)NC(=O)[C@H](CC(C)C)NC(=O)[C@H](CCCCN)NC(=O)c1ccc2c(c1)C(=O)OC21c2ccc(N(C)C)cc2Oc2cc(N(C)C)ccc21)C(=O)N[C@@H](CCC(=O)O)C(=O)N[C@@H](CO)C(=O)N[C@@H](CC(=O)O)C(=O)N[C@H](C(=O)O)C(C)C [TAMRA-NR2B9c] (5TAMRA-KLSSIESDV-OH),did not affect the barrier integrity,95.7% ± 1.6%,Minute amounts,Minute amounts,–,–
CC[C@H](C)[C@H](NC(=O)CCOCCOCCN(CCOCCOCCC(=O)N[C@H](C(=O)N[C@@H](CCC(=O)O)C(=O)N[C@H](C(=O)N[C@@H](CC(=O)O)C(=O)N[C@H](C(=O)O)C(C)C)[C@@H](C)O)[C@@H](C)CC)C(=O)[C@H](CCCNC(=N)N)NC(=O)[C@H](CCCNC(=N)N)NC(=O)[C@H](CCCNC(=N)N)NC(=O)[C@H](CCC(N)=O)NC(=O)[C@H](CCCNC(=N)N)NC(=O)[C@H](CCCNC(=N)N)NC(=O)[C@H](CCCCN)NC(=O)[C@H](CCCCN)NC(=O)[C@H](CCCNC(=N)N)NC(=O)CNC(=O)[C@H](Cc1ccc(O)cc1)NC(=O)c1ccc2c(c1)C(=O)OC21c2ccc(N(C)C)cc2Oc2cc(N(C)C)ccc21)C(=O)N[C@@H](CCC(=O)O)C(=O)N[C@H](C(=O)N[C@@H](CC(=O)O)C(=O)N[C@H](C(=O)O)C(C)C)[C@@H](C)O [TAMRA-Tat-N-dimer],did not affect the barrier integrity,85.0% ± 6.0%,Minute amounts,Minute amounts,did not affect barrier integrity,No significant difference
CC[C@H](C)[C@H](NC(=O)[C@H](CO)NC(=O)[C@H](CO)NC(=O)[C@H](CC(C)C)NC(=O)[C@H](CCCCN)NC(=O)[C@H](CCCNC(=N)N)NC(=O)[C@H](CCCNC(=N)N)NC(=O)[C@H](CCCNC(=N)N)NC(=O)[C@H](CCC(N)=O)NC(=O)[C@H](CCCNC(=N)N)NC(=O)[C@H](CCCNC(=N)N)NC(=O)[C@H](CCCCN)NC(=O)[C@H](CCCCN)NC(=O)[C@H](CCCNC(=N)N)NC(=O)CNC(=O)[C@H](Cc1ccc(O)cc1)NC(=O)c1ccc2c(c1)C(=O)OC21c2ccc(N(C)C)cc2Oc2cc(N(C)C)ccc21)C(=O)N[C@@H](CCC(=O)O)C(=O)N[C@@H](CO)C(=O)N[C@@H](CC(=O)O)C(=O)N[C@H](C(=O)O)C(C)C [TAMRA-Tat-NR2B9c] (5TAMRA-YGRKKRRQRRRKLSSIESDV-OH),significant decrease in TEER,58.6% ± 13.1%,Significantly larger amounts,Significantly larger amounts,–,to a greater extent than TAMRA-NR2B9c
CN(C)c1ccc2c(c1)Oc1cc(N(C)C)ccc1C21OC(=O)c2cc(C(=O)N[C@@H](Cc3ccc(O)cc3)C(=O)NCC(=O)N[C@@H](CCCNC(=N)N)C(=O)N[C@@H](CCCCN)C(=O)N[C@@H](CCCCN)C(=O)N[C@@H](CCCNC(=N)N)C(=O)N[C@@H](CCCNC(=N)N)C(=O)N[C@@H](CCC(N)=O)C(=O)N[C@@H](CCCNC(=N)N)C(=O)N[C@@H](CCCNC(=N)N)C(=O)N[C@@H](CCCNC(=N)N)C(=O)O)ccc21 [TAMRA-Tat],significant decrease in TEER,76.9% ± 5.6%,Significantly larger amounts,Significantly larger amounts,–,to a greater extent than TAMRA-NR2B9c
